Measured values as given in patent EP4806894A1, “TNAP INHIBITORY COMPOUND AND USE THEREOF” (Rednvia Co., Ltd., priority 2023, dated 2025).
Structures can show the parent of a compound that is named as a salt.

How the values were obtained:
TNAP = molecular target: T1, TNAP (Homo sapiens, UniProt P05186); assay: TNAP inhibitory activity, colorimetric assay (alkaline phosphatase assay kit ab83369, pNPP substrate); type: biochemical; details: TNAP enzyme, 2 hours at room temperature, absorbance 405 nm
T1 sequence (P05186 18-502 limits assumed): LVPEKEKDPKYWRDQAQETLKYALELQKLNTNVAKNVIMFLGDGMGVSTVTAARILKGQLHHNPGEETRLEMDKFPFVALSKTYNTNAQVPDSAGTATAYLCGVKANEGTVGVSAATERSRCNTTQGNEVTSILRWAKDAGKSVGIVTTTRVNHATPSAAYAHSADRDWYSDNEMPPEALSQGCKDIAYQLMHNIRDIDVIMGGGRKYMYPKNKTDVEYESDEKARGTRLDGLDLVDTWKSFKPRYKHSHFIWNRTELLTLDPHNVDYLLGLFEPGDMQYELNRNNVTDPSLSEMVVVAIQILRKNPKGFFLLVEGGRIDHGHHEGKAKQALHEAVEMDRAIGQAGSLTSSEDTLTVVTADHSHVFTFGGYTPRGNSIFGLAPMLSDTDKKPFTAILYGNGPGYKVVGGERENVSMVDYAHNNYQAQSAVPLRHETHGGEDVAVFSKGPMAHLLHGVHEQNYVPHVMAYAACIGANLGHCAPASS
Protocol: The TNAP inhibitory activity of the compounds according to the present invention was analyzed by colorimetric assay.
The experiments were performed according to the protocol of the alkaline phosphatase assay kit ab83369.
TNAP enzyme at a concentration of 0.2 ng/µl was dispensed into a 96-well plate (Costar) (10 µl/well), to which the 10-fold diluted test substance was added (15 µl/well). The plate was incubated at room temperature, shielded from light, for 10 minutes to allow the enzyme and compound to act. After incubation, 125 µl of 1 mM substrate (pNPP) was added to each well of the plate, and the plate was incubated for 2 hours at room temperature in a darkened state to allow the enzyme, substrate, and test compound to act. Absorbance was measured at 405 nm using a microplate reader (Tecan spark), and IC50 was calculated using GraphPad Prism 9. The amount of p-nitrophenol produced was calculated through the absorbance, and the degree of TNAP activity inhibition was evaluated through the degree of inhibition of p-nitrophenol production, and the concentration of the compound that inhibited 50% was calculated as the IC50 value.

saos-2 cells = assay: Anticalcification efficacy in saos-2 cells (osteogenic medium, Alizarin Red staining); type: cell-based; details: Homo sapiens, 168 h, test compound 1 µM, 7 days osteogenic medium, Alizarin Red absorbance 540 nm, read-out: calcification inhibition
Protocol: To confirm the inhibitory effect of calcification in saos-2 cells in which calcification is induced by overexpression of TNAP, saos-2 cells were cultured in a culture medium in an incubator at 37°C, 95% humidity, and 5% CO2. RPMI-1640 (Corning) supplemented with 10% FBS (Gibco) and 1% Pen/Strep (Gibco) was used as the culture medium.
Saos-2 cells were seeded in a 48-well plate at the density of 1.5 x 10^4 cells/well and used in the experiment when they reached 80-90% confluence after stabilization for 2 days.
After saos-2 cells were cultured in a 48-well plate to 80-90% confluence, the culture medium was removed and replaced with an osteogenic medium (OM). DMEM (Gibco) containing 10% FBS, 1% Pen/Strep, 100 nM dexamethasone (Sigma), 10 mM β-glycerophosphate (Sigma), and 0.05 mM L-ascorbic acid (Sigma) was used as the OM. Osteogenic differentiation of saos-2 cells by OM was induced for 7 days, and OM was replaced every 2 to 3 days.
When inducing calcification through OM in saos-2 cells, the cells were treated with concentrations of […] of the TNAP inhibitor test compounds with the OM replacement cycle, except for the control group (OM).
After 7 days of OM induction, the medium was removed from each well and the plate was washed twice with PBS. Cells were fixed with 4% paraformaldehyde for 1 hour, then the fixative was removed and washed twice with deionized water (DW). ARS solution was added to the plate and shaken for 1 hour to stain the cells. When the cells were sufficiently stained red, the dye was removed, the cells were washed carefully with DW, dried, and then photographs were taken of the stained cells. The red-stained area represents calcification induced by OM, and the degree of calcification was determined based on the degree of redness. To quantify this, 10% cetylpyridinium chloride was dispensed into the wells and the dye was dissolved. The dye-dissolved solution was transferred to each well of a 96 well plate and absorbance was measured at 540 nm.
The degree of decrease in the measured absorbance by the test compounds based on the absorbance for OM was evaluated as the degree of inhibition of calcification.

Compound | IC50 (TNAP) | inhibition at 1 µM (saos-2 cells)
COC(=O)Cc1ccc(-c2ccc(OC)c(S(=O)(=O)Nc3cnc4c(c3)C(=O)NC4)c2)cc1 [Example 27, methyl 2-(4'-methoxy-3'-(N-(5-oxo-6,7-dihydro-5H-pyrrolo[3,4-b]pyridine-3-yl)sulfamoyl)-[1,1'-biphenyl]-4-yl)acetate] | 100 to 1000 nM | ≥ 50%
COc1ccc(-c2ccc(CC(=O)O)cc2)cc1S(=O)(=O)Nc1cnc2c(c1)C(=O)NC2 [Example 28, 2-(4'-methoxy-3'-(N-(5-oxo-6,7-dihydro-5H-pyrrolo[3,4-b]pyridine-3-yl)sulfamoyl)-[1,1'-biphenyl]-4-yl)acetic acid] | 10 to 100 nM | ≥ 50%
COc1ccc(-c2ccc3c(c2)OCCO3)cc1S(=O)(=O)Nc1cnc2c(c1)C(=O)NCC2 [Example 29, 5-(2,3-dihydrobenzo[b][1,4]dioxine-6-yl)-2-methoxy-N-(5-oxo-5,6,7,8-tetrahydro-1,6-naphthyridine-3-yl)benzenesulfonamide] | 100 to 1000 nM | ≥ 50%
COc1ccc(-c2ccc(OC)c(S(=O)(=O)Nc3cnc4c(c3)C(=O)NCC4)c2)cc1 [Example 30, 4,4'-dimethoxy-N-(5-oxo-5,6,7,8-tetrahydro-1,6-naphthyridine-3-yl)-[1,1'-biphenyl]-3-sulfonamide] | ≥ 1000 nM | 0 to 50%
COc1ccc(-c2ccncc2)cc1S(=O)(=O)Nc1cnc2c(c1)C(=O)NCC2 [Example 31, 2-methoxy-N-(5-oxo-5,6,7,8-tetrahydro-1,6-naphthyridine-3-yl)-5-(pyridine-4-yl)benzenesulfonamide] | 100 to 1000 nM | ≥ 50%
COc1ccc(-c2ccc(C3(C(=O)O)CC3)cc2)cc1S(=O)(=O)Nc1cnc2c(c1)C(=O)NCC2 [Example 32, 1-(4'-methoxy-3'-(N-(5-oxo-5,6,7,8-tetrahydro-1,6-naphthyridine-3-yl)sulfamoyl)-[1,1'-biphenyl]-4-yl)cyclopropane-1-carboxylic acid] | 10 to 100 nM | ≥ 50%
COc1ccc(-c2ccc(CC(=O)O)cc2)cc1S(=O)(=O)Nc1cnc2c(c1)C(=O)NCC2 [Example 33, 2-(4'-methoxy-3'-(N-(5-oxo-5,6,7,8-tetrahydro-1,6-naphthyridine-3-yl)sulfamoyl)-[1,1'-biphenyl]-4-yl)acetic acid] | 10 to 100 nM | ≥ 50%
COc1ccc(-c2ccc(C(=O)O)cc2)cc1S(=O)(=O)Nc1cnc2c(c1)C(=O)NCC2 [Example 34, 4'-methoxy-3'-(N-(5-oxo-5,6,7,8-tetrahydro-1,6-naphthyridine-3-yl)sulfamoyl)-[1,1'-biphenyl]-4-carboxylic acid] | 100 to 1000 nM | ≥ 50%
O=C(O)Cc1ccc(-c2ccc(F)cc2S(=O)(=O)Nc2cnc3c(c2)C(=O)NCC3)cc1 [Example 35, 2-(4'-fluoro-2'-(N-(5-oxo-5,6,7,8-tetrahydro-1,6-naphthyridine-3-yl)sulfamoyl)-[1,1'-biphenyl]-4-yl)acetic acid] | ≤ 10 nM | ≥ 50%
O=C1NCCc2ncc(NS(=O)(=O)c3cc(F)ccc3-c3ccc(C4(C(=O)O)CC4)cc3)cc21 [Example 36, 1-(4'-fluoro-2'-(N-(5-oxo-5,6,7,8-tetrahydro-1,6-naphthyridine-3-yl)sulfamoyl)-[1,1'-biphenyl]-4-yl)cyclopropane-1-carboxylic acid] | 10 to 100 nM | ≥ 50%
O=C1NCCc2ncc(NS(=O)(=O)c3c(F)cc(F)cc3-c3ccc(C4(C(=O)O)CC4)cc3)cc21 [Example 37, 1-(3',5'-difluoro-2'-(N-(5-oxo-5,6,7,8-tetrahydro-1,6-naphthyridine-3-yl)sulfamoyl)-[1,1'-biphenyl]-4-yl)cyclopropane-1-carboxylic acid] | ≥ 1000 nM | < 0%
O=C1NCCc2ncc(NS(=O)(=O)c3cc(-c4ccc(C5(C(=O)O)CC5)cc4)cc4c3OCC4)cc21 [Example 38, 1-(4-(7-(N-(5-oxo-5,6,7,8-tetrahydro-1,6-naphthyridine-3-yl)sulfamoyl)-2,3-dihydrobenzofuran-5-yl)phenyl)cyclopropane-1-carboxylic acid] | ≥ 1000 nM | < 0%
NCc1ccc(-c2cc(F)cc(F)c2S(=O)(=O)Nc2cnc3c(c2)C(=O)NCC3)cc1 [Example 40, 4'-(aminomethyl)-3,5-difluoro-N-(5-oxo-5,6,7,8-tetrahydro-1,6-naphthyridine-3-yl)-[1,1'-biphenyl]-2-sulfonamide hydrochloride] | ≥ 1000 nM | < 0%
NCc1ccc(-c2cc3c(c(S(=O)(=O)Nc4cnc5c(c4)C(=O)NCC5)c2)OCC3)cc1 [Example 41, 5-(4-(aminomethyl)phenyl)-N-(5-oxo-5,6,7,8-tetrahydro-1,6-naphthyridine-3-yl)-2,3-dihydrobenzofuran-7-sulfonamide] | ≥ 1000 nM | < 0%
CCOC(=O)C(C)n1cc(-c2ccc(OC)c(S(=O)(=O)Nc3cnc4c(c3)C(=O)NCC4)c2)cn1 (stereo not drawn) [Example 42, ethyl 2-(4-(4-methoxy-3-(N-(5-oxo-5,6,7,8-tetrahydro-1,6-naphthyridine-3-yl)sulfamoyl)phenyl)-1H-pyrazole-1-yl)propanoate] | ≤ 10 nM | ≥ 50%
COc1ccc(-c2cnn(C(C)C(=O)O)c2)cc1S(=O)(=O)Nc1cnc2c(c1)C(=O)NCC2 (stereo not drawn) [Example 43, 2-(4-(4-methoxy-3-(N-(5-oxo-5,6,7,8-tetrahydro-1,6-naphthyridine-3-yl)sulfamoyl)phenyl)-1H-pyrazole-1-yl)propanoic acid] | 10 to 100 nM | ≥ 50%
COc1ccc(-c2cnc(N)nc2)cc1S(=O)(=O)Nc1cnc2c(c1)C(=O)NCC2 [Example 44, 5-(2-aminopyrimidine-5-yl)-2-methoxy-N-(5-oxo-5,6,7,8-tetrahydro-1,6-naphthyridine-3-yl)benzenesulfonamide] | 100 to 1000 nM | ≥ 50%
COc1ccc(-c2cnn3ccccc23)cc1S(=O)(=O)Nc1cnc2c(c1)C(=O)NCC2 [Example 45, 2-methoxy-N-(5-oxo-5,6,7,8-tetrahydro-1,6-naphthyridine-3-yl)-5-(pyrazolo[1,5-a]pyridine-3-yl)benzenesulfonamide] | 100 to 1000 nM | ≥ 50%
COc1ccc(-c2cc(F)c(O)c(F)c2)cc1S(=O)(=O)Nc1cnc2c(c1)C(=O)NCC2 [Example 46, 3',5'-difluoro-4'-hydroxy-4-methoxy-N-(5-oxo-5,6,7,8-tetrahydro-1,6-naphthyridine-3-yl)-[1,1'-biphenyl]-3-sulfonamide] | 100 to 1000 nM | ≥ 50%
COc1ccc(-c2cnn(CC(=O)OC(C)(C)C)c2)cc1S(=O)(=O)Nc1cnc2c(c1)C(=O)NCC2 [Example 47, tert-butyl 2-(4-(4-methoxy-3-(N-(5-oxo-5,6,7,8-tetrahydro-1,6-naphthyridine-3-yl)sulfamoyl)phenyl)-1H-pyrazole-1-yl)acetate] | 100 to 1000 nM | ≥ 50%
COc1ccc(-c2cnn(CC(=O)O)c2)cc1S(=O)(=O)Nc1cnc2c(c1)C(=O)NCC2 [Example 48, 2-(4-(4-methoxy-3-(N-(5-oxo-5,6,7,8-tetrahydro-1,6-naphthyridine-3-yl)sulfamoyl)phenyl)-1H-pyrazole-1-yl)acetic acid] | 10 to 100 nM | ≥ 50%
